Source: patent publication US20030224024A1, “Compositions comprising cyclopentane derivatives and their use” (priority 2002, published 2003)

Experiments:
isolated stratum corneum [1] = test: Keratolytic power, Test 1: counting corneocytes released from patches of isolated stratum corneum; assay type: cell-based; settings: 1% by weight solution in PBS + 0.1% Triton X100, pH 7.4, 37° C., 24 hours
Procedure: (§1) The keratolytic power of a number of compounds of the disclosure was studied. This test comprises counting corneocytes released following incubation of patches of isolated stratum corneum in the presence of the test compounds.
(§2) Stratum corneum isolated by trypsin/heat from surgical plasties was used. A number of different stratum corneum samples were used. Discs of 4 mm in diameter were punched out and placed at the bottom of a 96-well plate.
A 1% by weight solution of the compound of Example 1, or (1R,2R)-3-oxo-2-(2Z)pentylcyclopentaneacetic acid (comparative), was prepared in a PBS buffer supplemented with 0.1% of Triton X100. The pH of the solution was adjusted to 7.4.
50 microlitres of test solution or of control solution (PBS buffer supplemented with 0.1% of Triton:X100) were added to each well. Incubation was carried out at 37° C. with stirring for 24 hours.
(§3) 10 microlitres of solution were then withdrawn and were placed in a Malassez cell. The liberated corneocytes were counted under the microscope.
The results obtained are as follows, expressed as the number of liberated corneocytes per microlitre, averaged over three tests. Corneocyte fragments were not counted.

isolated stratum corneum [2] = test: Keratolytic power, Test 2: counting corneocytes released from patches of isolated stratum corneum; assay type: cell-based; settings: 1% by weight solution in PBS + 0.1% Triton X100, pH 7.4, 37° C., 24 hours; for number of liberated corneocytes per microlitre, Sample 1 (3 tests): Test 2, Sample 1, average over three tests; for number of liberated corneocytes per microlitre, Sample 2 (3 tests): Test 2, Sample 2, average over three tests; for number of liberated corneocytes per microlitre, Average: Test 2, average of Samples 1 and 2
Procedure: as §1, §2
A 1% by weight solution of the compound of Example 1 or salicylic acid, was prepared in a PBS buffer supplemented with 0.1% of Triton X100. The pH of the solution was adjusted to 7.4.
50 microlitres of test solution or of control solution (PBS buffer supplemented with 0.1% of Triton X100) were added to each well. Incubation was carried out at 37° C. with stirring for 24 hours.
as §3
The results obtained are as follows, expressed as the number of liberated corneocytes per microlitre. Corneocyte fragments were not counted.

| Structure (SMILES) | number of liberated corneocytes per microlitre, Average (3 tests per sample, 3 different samples) (isolated stratum corneum [1]) | number of liberated corneocytes per microlitre, Sample 1 (3 tests) (isolated stratum corneum [2]) | number of liberated corneocytes per microlitre, Sample 2 (3 tests) (isolated stratum corneum [2]) | number of liberated corneocytes per microlitre, Average (isolated stratum corneum [2]) |
| --- | --- | --- | --- | --- |
| CC/C=C\C[C@H]1C(=O)CC[C@@H]1CC(=O)O (racemic) [Example 1, (±)(1R,2R)-3-oxo-2-[(2Z)-2-pentenyl]cyclopentaneacetic acid] | 15 ± 5 liberated corneocytes per microlitre | 80 ± 4 liberated corneocytes per microlitre | 64 ± 11 liberated corneocytes per microlitre | 72 ± 7 liberated corneocytes per microlitre |
| CC/C=C\C[C@H]1C(=O)CC[C@@H]1CC(=O)O [Comparative, (1R,2R)-3-oxo-2-(2Z)pentylcyclopentaneacetic acid] | 12 ± 4 liberated corneocytes per microlitre | – | – | – |
| O=C(O)c1ccccc1O [Salicylic acid, salicylic acid] | – | 33 ± 20 liberated corneocytes per microlitre | 21 ± 8 liberated corneocytes per microlitre | 27 ± 14 liberated corneocytes per microlitre |
